Results: patent US10787477B2, “Solid form of 4′-thio-2′-fluoronucleoside phosphamide compound and preparation method therefor and use thereof” (SICHUAN KELUN-BIOTECH BIOPHARMACEUTICAL CO., LTD., priority 2016, dated 2020)
Converted amounts (≈) assume the structure as drawn.

What was measured:
[1] = Drug excretion experiment in mice (radioactivity recovery in urine and feces); format: in vivo, ICR mice
Protocol: Crystalline form A having a radioisotope ([^14C] crystalline form A) is formulated as a suspension in 0.5% sodium carboxymethylcellulose (CMC-Na), and ICR mice were administered by single gavage at a dose of 117 μCi/4.08 mg/kg [^14C] crystalline form A. The absorption and excretion characteristics of crystalline form A were examined by measuring the radioactivity recovery in urine and feces.

[2] = Equilibrium solubility study in deionized water; format: physicochemical; conditions: for crystal transformation (XRPD of the solid): dispersed in water for 24 hours
Protocol: About 2.0 to 5.0 mg of each of crystalline form A, crystalline form B and crystalline form D of the compound of Formula (I) was weighed, added to a 3 ml vial, and added with 1.0 ml of deionized water. The resulting suspension was then placed in a rotary incubator (rotation speed was 25 rpm), and equilibrated in a biochemical incubator at 25° C. for 24 hours before 0.8 ml of the suspension was taken. The suspension was centrifuged (6000 rpm, 15 minutes), the supernatant was detected by HPLC for solubility, and the XRPD pattern of the solid was detected.

[3] = Stability relationship (slurry of crystalline forms in water pre-saturated with form A); format: physicochemical; conditions: slurried in H2O pre-saturated with crystalline form A, room temperature, about 4 days
Protocol: An equal weight of each of crystalline forms A, B and D (8 mg each) was weighed and respectively added to a H2O solution (0.3 ml) pre-saturated with a sample of crystalline form A at room temperature, and the resulting suspension was slurried at room temperature for about 4 days before isolation of the solid. The wet and dry samples were respectively subjected to XRPD pattern detection.

[4] = Solid state stability at 40° C./75% RH; format: physicochemical; conditions: open container, 8 days
Protocol: A suitable amount of crystalline form A of the compound of Formula (I) was weighed as a test sample, and it was left in an open container for 8 days under conditions of 40° C./75% RH (RH means relative humidity). The XRPD pattern of the test sample after the treatment was detected, and the purity was measured by HPLC.

Light experiment = format: physicochemical; conditions: light intensity of 4500 1×, 25° C., RH 25%
Protocol: Crystalline form A of the compound of Formula (I) was placed under the conditions of a light intensity of 4500 1×, 25° C., and RH 25% for 30 days, and samples were taken on Day 0, 5, 11 and 30, respectively, to observe changes in the properties of the samples. The specific optical rotation was measured with a polarimeter, the loss on drying was measured, and the total impurity content was measured by HPLC.

[5] = High temperature experiment; format: physicochemical; conditions: 60° C.
Protocol: Crystalline form A of the compound of Formula (I) was allowed to stand at a high temperature of 60° C. for 30 days, and samples were taken at Day 0, 5, 10, and 30, respectively, to observe changes in the properties of the samples. The specific optical rotation was measured with a polarimeter, the loss on drying was measured, and the total impurity content was measured by HPLC.

High humidity experiment = format: physicochemical; conditions: 25° C. and RH 75%
Protocol: Crystalline form A of the compound of Formula (I) was placed under a high humidity condition of 25° C. and RH 75% for 30 days, and samples were taken at Day 0, 5, 10, and 30, respectively, to observe changes in the properties of the samples. The specific optical rotation was measured with a polarimeter, the loss on drying was measured, and the total impurity content was measured by HPLC.

[6] = Pharmacokinetic experiment in mice; format: in vivo, ICR mice; conditions: single gavage
Protocol: Crystalline form A of the compound of Formula (I) was formulated as a suspension in 0.5% sodium carboxymethylcellulose (CMC-Na), and ICR mice were administered by single gavage to investigate the pharmacokinetic characteristics. The single gavage doses were 2 mg/kg, 4 mg/kg and 8 mg/kg, respectively.
The pharmacokinetic parameters were each calculated according to the concentration-time curve of metabolite I in plasma.

[7] = Pharmacokinetic experiment in beagle dogs; format: in vivo; conditions: single gavage
Protocol: Crystalline form A of the compound of Formula (I) was formulated as a suspension in 0.5% CMC-Na, and administered by single gavage to beagle dogs. The single gavage doses were 0.1 mg/kg, 0.2 mg/kg and 0.4 mg/kg, respectively.

[8] = inferred from urine radioactivity recovery

Q: With CC(C)OC(=O)[C@H](C)N[P@](=O)(OC[C@H]1S[C@@H](n2ccc(N)nc2=O)[C@@H](F)[C@@H]1O)Oc1ccccc1 [[^14C] crystalline form A] as the compound, how does the “radioactivity recovery in urine” value ([1]; single gavage 117 μCi/4.08 mg/kg, within 0 to 120 hours) read?
A: 78.7%

Q: What about the “radioactive substances excreted in urine and feces, of the administered amount” value ([1]; single gavage, within 48 hours after administration) of the same compound?
A: 84.5%

Q: With CC(C)OC(=O)[C@H](C)N[P@](=O)(OC[C@H]1S[C@@H](n2ccc(N)nc2=O)[C@@H](F)[C@@H]1O)Oc1ccccc1 [crystalline form D, (S)-isopropyl 2-(((S)-(((2R,3S,4S,5R)-5-(4-amino-2-oxopyrimidin-1(2H)-yl)-4-fluoro-3-hydroxytetrahydrothiophen-2-yl)methoxy)(phenoxy)phosphoryl)amino)propanoate] as the compound, how does the “crystal transformation (XRPD of the solid)” value ([2]; 25° C.) read?
A: underwent crystal transformation

Q: What about the “stability relationship / conversion of crystalline form (XRPD)” value [3] of the same compound?
A: converted to crystalline form A

Q: What does the source list for CC(C)OC(=O)[C@H](C)N[P@](=O)(OC[C@H]1S[C@@H](n2ccc(N)nc2=O)[C@@H](F)[C@@H]1O)Oc1ccccc1 [crystalline form A, (S)-isopropyl 2-(((S)-(((2R,3S,4S,5R)-5-(4-amino-2-oxopyrimidin-1(2H)-yl)-4-fluoro-3-hydroxytetrahydrothiophen-2-yl)methoxy)(phenoxy)phosphoryl)amino)propanoate]?
A: solubility at 24 h ([2]; deionized water, 25 °C, water, thermodynamic from solid, deionized water, after 24 hours, HPLC): ~1000 µg/mL (≈ 1880 µM); crystal transformation (XRPD of the solid) ([2]; 25° C.): did not undergo crystal transformation; crystal transformation (XRPD) [4]: did not undergo crystal transformation; relative purity of the sample (HPLC) [4]: 99.9%; appearance (Light experiment; 30 days): no change in the appearance; variation in the specific optical rotation (Light experiment; Day 0 to Day 30): ≤ 3 °; loss on drying % (Light experiment; different time points): ≤ 1.0%; total impurity content detected by HPLC (Light experiment; different time points): remained substantially unchanged; appearance ([5]; 30 days): no change in the appearance; variation in the specific optical rotation ([5]; Day 0 to Day 30): ≤ 2 °; loss on drying % ([5]; different time points): ≤ 1.07%; total impurity content detected by HPLC ([5]; different time points): remained substantially unchanged; appearance (High humidity experiment; 30 days): no change in the appearance; variation in the specific optical rotation (High humidity experiment; Day 0 to Day 30): ≤ 1 °; loss on drying % (High humidity experiment; different time points): ≤ 1.0%; total impurity content detected by HPLC (High humidity experiment; different time points): remained substantially unchanged; stability relationship / conversion of crystalline form (XRPD) [3]: more stable at room temperature; metabolism upon entering the body [6]: rapidly metabolized as pharmacologically active metabolite I; metabolism upon entering the body [7]: rapidly metabolized as pharmacologically active metabolite I; absolute bioavailability by intragastric administration [1, 8]: above 78.7%; proportion of the drug ingredient absorbed into the blood by oral administration [1, 8]: at least 78.7%

Q: What does the source list for CC(C)OC(=O)[C@H](C)N[P@](=O)(OC[C@H]1S[C@@H](n2ccc(N)nc2=O)[C@@H](F)[C@@H]1O)Oc1ccccc1 [crystalline form B, (S)-isopropyl 2-(((S)-(((2R,3S,4S,5R)-5-(4-amino-2-oxopyrimidin-1(2H)-yl)-4-fluoro-3-hydroxytetrahydrothiophen-2-yl)methoxy)(phenoxy)phosphoryl)amino)propanoate]?
A: solubility in water ([2]; deionized water, 25° C., after 24 hours, HPLC): ~1800 µg/mL (≈ 3390 µM); crystal transformation (XRPD of the solid) ([2]; 25° C.): did not undergo crystal transformation; stability relationship / conversion of crystalline form (XRPD) [3]: converted to crystalline form A
